In patent US20230416329A1, “A PEPTIDE WITH DISULFIDE BONDS AND INHIBITORY ACTIVITY AGAINST SERINE PROTEASES, DERIVED HYBRID PEPTIDES THEREOF, AND USES THEREOF” (INSTITUTE OF MATERIA MEDICA , CHINESE ACADEMY OF MEDICAL …, priority 2020, published 2023):
Bridge positions count the residues as written; N and C are the ends. Peptide text beside a SMILES is read from it.

Molecular target: α-chymotrypsin (Bos taurus, UniProt P00766)
Experiment: Chymotrypsin inhibitory activity of peptides (AAPFpNA hydrolysis; IC50, Ki, residual activity)
Type: biochemical
Details: for IC50: chymotrypsin 30 nM, AAPFpNA 0.5 mM; for Ki: Ki=IC50/(1+S/Km), Km 0.38 mM
Experimental: The inhibition constants of various synthetic active peptide inhibitors (molecular scaffolds) against seine proteases were measured. The substrates N-succinyl-Ala-Ala-Pro-Phe-p-nitroaniline (AAPFpNA), Nα—Benzoyl-L-arginine-4-nitroaniline hydrochloride (BApNA) and N-succinyl-[…] (AAApNA) are used in competitive binding reaction to determine the inhibitory activities against α-chymotrypsin, bovine trypsin, and porcine pancreatic elastase, respectively. Experiments for α-chymotrypsin and bovine trypsin inhibition were measured in 20 mM CaCl2, 50 mM Tris-HCl buffer (pH 7.8), and that for porcine elastase inhibition was measured in 50 mM Tris-HCl buffer (pH 8.0). The concentration of the peptide was measured using optical density (OD) at 280 nm. The Michaelis constant (Km) of the enzyme hydrolysis substrate is calculated from the initial rate of substrate hydrolysis at 405 nm. The absorbance value of the substrate was measured at 405 nm after complete hydrolysis. All data were processed using nonlinear regression.
• (1) Added a total 190 μL of reaction buffer (20 mM CaCl2, 50 mM Tris-HCl (pH 7.8)) into the 96 well plate, followed by preheating at 37° C. for 15 min. Then added 2 μL of different concentrations of substrates (p-Nitroanilide, pNA, 0.5% in DMSO), and mixed by centrifugation at 500 rpm for 1 min. Finally, the plate was incubated at 37° C. for 20 min, and the absorbance value at 405 nm was measured. In the 200 μL of reaction system, the final concentrations of pNA were 0, 0.025, 0.05, 0.075, 0.1, 0.125, 0.15, 0.25, and 0.3 mM, respectively. Make three repetitions for each concentration and plot the OD405 m value with pNA concentration to obtain the standard curve. • (2) Added a total 190 μL of reaction buffer (20 mM CaCl2, 50 mM Tris-HCl (pH 7.8)) and 8 μL of 0.75 μM chymotrypsin into the 96 well plate, followed by preheating at 37° C. for 5 min. Then added 2 μL of different concentrations of substrates (AAPFpNA, dissolved in DMSO), and mixed by centrifugation at 500 rpm for 1 min. Finally, the plate was incubated at 37° C. for 20 min, and the absorbance value at 405 nm was measured. In the 200 μL of reaction system, the final concentrations of AAPFpNA were 0, 0.125, 0.25, 0.285, 0.33, 0.4, and 0.5 mM, respectively. Make three repetitions for each concentration and plot the OD405 nm value with time to obtain the corresponding curve. Divide the slope of the curve by the slope of the standard curve and the enzyme concentration to obtain the initial velocity V0 (mM/(min*mM protein). Plot the initial velocity V0 with the concentration of substrate AAPFpNA using Prism software, and the Michaelis constant Km value of chymotrypsin hydrolyzing AAPFpNA was obtained.
• (1) Added a total 190 μL of reaction buffer (20 mM CaCl2, 50 mM Tris-HCl (pH 7.8)), different concentrations of anti-chymorypsin peptides (CHs) into the pre-cold 96 well plate, followed by preheating at 37° C. for 5 min and centrifugated at 500 rpm for 1 min and allowed to stand for 4 minutes. Then added 8 μL of 750 nM chymotrypsin and incubated at 37° C. for 10 min, and centrifugated at 500 rpm for 1 min and allowed to stand for 9 minutes. Finally, added 2 μL of 50 mM AAPFpNA, and mixed by centrifugation at 500 rpm for 1 min. The plate was incubated at 37° C. for 90 min, and the absorbance value at 405 nm was measured. Three repetitions were made, and only reaction buffer and substrate were added in the blank control as the minimum absorption value (Min OD405 nm); Only reaction buffer, enzyme and substrate were added in the negative control as the maximum absorption value (Max OD405). • (2) In the 200 μL of reaction system, the final concentrations of chymotrypsin and AAPFpNA were 30 nM and 0.5 mM, respectively. • (3) Data statistics
Residual activity of enzyme (%)=(1−(Max OD405 nm−Sample OD405 nm)/(Max OD405 nm−Min OD405 nm))*100 […]

Row | Structure (SMILES) | IC50 | inhibitory activity against chymotrypsin (in words) | Ki | also measured
1 | CC[C@H](C)[C@@H]1NC(=O)[C@H](CO)NC(=O)[C@H](Cc2ccc(O)cc2)NC(=O)[C@H]([C@@H](C)O)NC(=O)[C@H](C)NC(=O)[C@H](Cc2ccc(O)cc2)NC(=O)CNC(=O)[C@@H](N)CSSC[C@@H](C(=O)N[C@@H](Cc2ccc(O)cc2)C(=O)NCC(=O)O)NC(=O)[C@H](CCC(N)=O)NC(=O)[C@@H]2CCCN2C(=O)[C@@H]2CCCN2C1=O [CH30] (H-CGYATYSIPPQCYG-OH; disulfide 1-12) | > 50000 nM |  |  | 
2 | CC[C@H](C)[C@@H]1NC(=O)[C@H](CO)NC(=O)[C@H](Cc2ccc(O)cc2)NC(=O)[C@H]([C@@H](C)O)NC(=O)[C@H](C)NC(=O)[C@H](C)NC(=O)CNC(=O)[C@@H](N)CSSC[C@@H](C(=O)N[C@@H](Cc2ccccc2)C(=O)O)NC(=O)[C@H](CCCCN)NC(=O)[C@H](C)NC(=O)[C@@H]2CCCN2C1=O [CH31] (H-CGAATYSIPAKCF-OH; disulfide 1-12; N-terminus and C-terminus assumed) | 6080 nM | certain inhibitory activity | 2630 nM | Residual activity of chymotrypsin (peptide 0.01 μM): 107.4 ± 5.6%; Residual activity of chymotrypsin (peptide 0.1 μM): 104.3 ± 1.7%; Residual activity of chymotrypsin (peptide 1 μM): 104.8 ± 2.6%; Residual activity of chymotrypsin (peptide 8 μM): 42.5 ± 5.9%; Residual activity of chymotrypsin (peptide 10 μM): 29.5 ± 5.1%; Residual activity of chymotrypsin (peptide 25 μM): 12.7 ± 4.0%; Residual activity of chymotrypsin (peptide 100 μM): 2.6 ± 0.3%; Residual activity of chymotrypsin (peptide 300 μM): 1.0 ± 0.1%; Residual activity of chymotrypsin (peptide 1000 μM): 0.4 ± 0.0%
3 | CC[C@H](C)[C@@H]1NC(=O)[C@H](CO)NC(=O)[C@H](Cc2ccc(O)cc2)NC(=O)[C@H]([C@@H](C)O)NC(=O)[C@H](C)NC(=O)[C@H](C)NC(=O)CNC(=O)CNC(=O)[C@@H](N)CSSC[C@@H](C(=O)N[C@@H](Cc2ccccc2)C(=O)O)NC(=O)[C@H](CCCCN)NC(=O)[C@H](C)NC(=O)[C@@H]2CCCN2C1=O [CH32] (H-CGGAATYSIPAKCF-OH; disulfide 1-13; N-terminus and C-terminus assumed) | 6380 nM | certain inhibitory activity | 2760 nM | Residual activity of chymotrypsin (peptide 0.01 μM): 99.5 ± 0.1%; Residual activity of chymotrypsin (peptide 0.1 μM): 100.2 ± 1.9%; Residual activity of chymotrypsin (peptide 1 μM): 99.0 ± 2.0%; Residual activity of chymotrypsin (peptide 4 μM): 90.1 ± 6.1%; Residual activity of chymotrypsin (peptide 6 μM): 49.2 ± 2.7%; Residual activity of chymotrypsin (peptide 8 μM): 40.8 ± 6.0%; Residual activity of chymotrypsin (peptide 25 μM): 14.4 ± 1.1%; Residual activity of chymotrypsin (peptide 100 μM): 2.2 ± 0.2%; Residual activity of chymotrypsin (peptide 300 μM): 0.7 ± 0.1%
4 | CC[C@H](C)[C@@H]1NC(=O)[C@H](CO)NC(=O)[C@H](Cc2ccc(O)cc2)NC(=O)[C@H]([C@@H](C)O)NC(=O)[C@@H](NC(=O)[C@@H](N)Cc2ccccc2)CSSC[C@@H](C(=O)N[C@@H](Cc2ccc(O)cc2)C(=O)O)NC(=O)[C@H](CCC(N)=O)NC(=O)[C@@H]2CCCN2C(=O)[C@@H]2CCCN2C1=O [CH33] (H-FCTYSIPPQCY-OH; disulfide 2-10; C-terminus assumed) |  | good inhibitory activity |  | 
5 | CC[C@H](C)[C@@H]1NC(=O)[C@H](CO)NC(=O)[C@H](Cc2ccc(O)cc2)NC(=O)[C@H]([C@@H](C)O)NC(=O)[C@@H](NC(=O)[C@@H](N)Cc2ccccc2)CSSC[C@@H](C(=O)N[C@@H](Cc2ccc(O)cc2)C(=O)N[C@@H](C)C(=O)O)NC(=O)[C@H](CCC(N)=O)NC(=O)[C@@H]2CCCN2C(=O)[C@@H]2CCCN2C1=O [CH34] (H-FCTYSIPPQCYA-OH; disulfide 2-10; N-terminus and C-terminus assumed) |  | good inhibitory activity |  | 
6 | CC[C@H](C)[C@@H]1NC(=O)[C@H](CO)NC(=O)[C@H](Cc2ccc(O)cc2)NC(=O)[C@H]([C@@H](C)O)NC(=O)[C@@H](NC(=O)[C@@H](N)Cc2ccccc2)CSSC[C@@H](C(=O)N[C@@H](CCCNC(=N)N)C(=O)O)NC(=O)[C@H](CCC(N)=O)NC(=O)[C@@H]2CCCN2C(=O)[C@@H]2CCCN2C1=O [CH35] (H-FCTYSIPPQCR-OH; disulfide 2-10; C-terminus assumed) |  | good inhibitory activity |  | Residual activity of chymotrypsin (peptide 1000 μM): 0.9 ± 0.1%
7 | CC[C@H](C)[C@@H]1NC(=O)[C@H](CO)NC(=O)[C@H](Cc2ccc(O)cc2)NC(=O)[C@H]([C@@H](C)O)NC(=O)[C@@H](NC(=O)[C@@H](N)Cc2ccccc2)CSSC[C@@H](C(=O)N[C@@H](Cc2ccc(O)cc2)C(=O)O)NC(=O)[C@H](CCCCN)NC(=O)[C@H](C)NC(=O)[C@@H]2CCCN2C1=O [CH36] (H-FCTYSIPAKCY-OH; disulfide 2-10; N-terminus and C-terminus assumed) | 3230 nM |  | 1390 nM | 
8 | CC[C@H](C)[C@@H]1NC(=O)[C@H](CO)NC(=O)[C@H](Cc2ccc(O)cc2)NC(=O)[C@H]([C@@H](C)O)NC(=O)[C@@H](NC(=O)[C@@H](N)Cc2ccccc2)CSSC[C@@H](C(=O)N[C@@H](Cc2ccc(O)cc2)C(=O)O)NC(=O)[C@H](CCC(N)=O)NC(=O)[C@H](C)NC(=O)[C@@H]2CCCN2C1=O [CH37] (H-FCTYSIPAQCY-OH; disulfide 2-10; N-terminus and C-terminus assumed) | 1810 nM |  | 780 nM | 
9 | CC[C@H](C)[C@H](N)C(=O)N[C@H]1CSSC[C@@H](C(=O)N[C@H](C(=O)O)[C@@H](C)CC)NC(=O)[C@H](CCC(N)=O)NC(=O)[C@H](C)NC(=O)[C@@H]2CCCN2C(=O)[C@H]([C@@H](C)CC)NC(=O)[C@H](CO)NC(=O)[C@H](Cc2ccccc2)NC(=O)[C@H]([C@@H](C)O)NC1=O [CH38] (H-ICTFSIPAQCI-OH; disulfide 2-10; N-terminus and C-terminus assumed) | 4980 nM |  | 2150 nM | 
10 | CC[C@H](C)[C@H](N)C(=O)N[C@H]1CSSC[C@@H](C(=O)N[C@@H](Cc2ccccc2)C(=O)O)NC(=O)[C@H](CCC(N)=O)NC(=O)[C@H](C)NC(=O)[C@@H]2CCCN2C(=O)[C@H]([C@@H](C)CC)NC(=O)[C@H](CO)NC(=O)[C@H](Cc2ccccc2)NC(=O)[C@H]([C@@H](C)O)NC1=O [CH40] (H-ICTFSIPAQCF-OH; disulfide 2-10; N-terminus and C-terminus assumed) | 2460 nM |  | 1060 nM | 
11 | CSCC[C@@H]1NC(=O)[C@H](CO)NC(=O)[C@H](Cc2ccc(O)cc2)NC(=O)[C@H]([C@@H](C)O)NC(=O)[C@@H](NC(=O)[C@@H](N)Cc2ccccc2)CSSC[C@@H](C(=O)N[C@H](C(=O)O)C(C)C)NC(=O)[C@H](Cc2c[nH]cn2)NC(=O)[C@@H]2CCCN2C(=O)[C@@H]2CCCN2C1=O [CH41] (H-FCTYSMPPHCV-OH; disulfide 2-10; N-terminus and C-terminus assumed) | 2600 nM |  | 1120 nM | 
12 | CC(C)C[C@H](NC(=O)[C@@H]1CSSC[C@H](NC(=O)[C@@H](N)CCCNC(=N)N)C(=O)N[C@@H](CC(=O)O)C(=O)N[C@@H](Cc2ccccc2)C(=O)N[C@@H](CO)C(=O)N[C@@H](Cc2c[nH]c3ccccc23)C(=O)N2CCC[C@H]2C(=O)N2CCC[C@H]2C(=O)N[C@@H](CCCNC(=N)N)C(=O)N1)C(=O)O [CH42] (H-RCDFSWPPRCL-OH; disulfide 2-10; N-terminus and C-terminus assumed) | > 50000 nM |  |  | 
